Data taken from ChEMBL document CHEMBL5058564, “EUbOPEN Chemogenomics Library 2 (Incucyte)” (2022).

Assays:
Format in all cases: toxicity, cell-based
U2OS = experiment: Incucyte cell viability with U2OS; conditions: human, 10 µM, compound concentration 10 uM
Fibroblast = experiment: Incucyte cell viability with human fibroblast; conditions: 10 µM, compound concentration 10 uM
HEK-293T = experiment: Incucyte cell viability with HEK293T; conditions: human, 10 µM, compound concentration 10 uM
[1] = 0 h, replicate number 1, timepoint 0 hours
[2] = 0 h, replicate number 2, timepoint 0 hours
[3] = 12 h, replicate number 1, timepoint 12 hours
[4] = 18 h, replicate number 1, timepoint 18 hours
[5] = 24 h, replicate number 1, timepoint 24 hours
[6] = 6 h, replicate number 1, timepoint 6 hours
[7] = 6 h, replicate number 2, timepoint 6 hours
[8] = 12 h, replicate number 2, timepoint 12 hours
[9] = 24 h, replicate number 2, timepoint 24 hours
[10] = 18 h, replicate number 2, timepoint 18 hours
Note: unitless GR value; below 1 slowed growth and below 0 cell loss.

O=C(O)COc1cccc(-c2ocnc2-c2nc(-c3ccccc3)c(-c3ccccc3)o2)c1
Growth Rate (U2OS; [1]): -0.56
Growth Rate (U2OS; [2]): 0.7
Growth Rate (U2OS; [3]): 0.74
Growth Rate (U2OS; [4]): 0.88
Growth Rate (U2OS; [5]): 1
Growth Rate (Fibroblast; [1]): 0.04
Growth Rate (Fibroblast; [2]): 0.64
Growth Rate (Fibroblast; [6]): 0.49
Growth Rate (Fibroblast; [7]): 0.07
Growth Rate (Fibroblast; [3]): 0.59
Growth Rate (Fibroblast; [8]): 0.91
Growth Rate (Fibroblast; [4]): 0.64
Growth Rate (Fibroblast; [5]): 0.59
Growth Rate (HEK-293T; [1]): 0.53
Growth Rate (HEK-293T; [2]): -0.17
Growth Rate (HEK-293T; [3]): 0.79
Growth Rate (HEK-293T; [4]): 0.67
Growth Rate (HEK-293T; [5]): 0.9
Growth Rate (HEK-293T; [9]): 0.98

COC(=O)N1CCN(C(=O)Cc2ccc(Cl)c(Cl)c2)C(CN2CCCC2)C1.O=C(O)/C=C/C(=O)O (configuration not stated)
Growth Rate (U2OS; [6]): 0.36
Growth Rate (U2OS; [7]): 0.4
Growth Rate (U2OS; [3]): 0.75
Growth Rate (U2OS; [8]): 0.54
Growth Rate (U2OS; [10]): 0.75
Growth Rate (U2OS; [9]): 0.76
Growth Rate (Fibroblast; [2]): 0.83
Growth Rate (Fibroblast; [7]): 0.71
Growth Rate (HEK-293T; [1]): 1
Growth Rate (HEK-293T; [8]): 0.72

N[C@](CC1c2ccccc2Oc2ccccc21)(C(=O)O)[C@H]1C[C@@H]1C(=O)O
Growth Rate (U2OS; [2]): 0.8
Growth Rate (U2OS; [8]): 0.92
Growth Rate (U2OS; [4]): 0.9
Growth Rate (Fibroblast; [1]): 0.29
Growth Rate (Fibroblast; [7]): 0.73
Growth Rate (Fibroblast; [8]): 0.93
Growth Rate (Fibroblast; [4]): 0.9
Growth Rate (Fibroblast; [10]): 0.82
Growth Rate (Fibroblast; [5]): 0.68
Growth Rate (Fibroblast; [9]): 0.88
Growth Rate (HEK-293T; [1]): 0.78
Growth Rate (HEK-293T; [2]): -1
Growth Rate (HEK-293T; [6]): 0.42
Growth Rate (HEK-293T; [3]): 0.5
Growth Rate (HEK-293T; [4]): 0.57
Growth Rate (HEK-293T; [5]): 0.69

Cl.O=C(O)c1cc(-c2ccc(C3CCNCC3)cc2)c2ccc(-c3ccc(C(F)(F)F)cc3)cc2c1
Growth Rate (U2OS; [6]): 0.77
Growth Rate (U2OS; [7]): 0.7
Growth Rate (U2OS; [3]): 0.79
Growth Rate (U2OS; [8]): 0.48
Growth Rate (U2OS; [4]): 0.6
Growth Rate (U2OS; [10]): 0.48
Growth Rate (U2OS; [5]): 0.6
Growth Rate (U2OS; [9]): 0.44
Growth Rate (Fibroblast; [1]): -0.16
Growth Rate (Fibroblast; [2]): -0.95
Growth Rate (Fibroblast; [6]): -0.7
Growth Rate (Fibroblast; [7]): 0.67
Growth Rate (Fibroblast; [3]): -0.12
Growth Rate (Fibroblast; [8]): 0.42
Growth Rate (Fibroblast; [4]): -0.01
Growth Rate (Fibroblast; [10]): 0.43
Growth Rate (Fibroblast; [5]): 0.06
Growth Rate (Fibroblast; [9]): 0.23
Growth Rate (HEK-293T; [1]): -0.99
Growth Rate (HEK-293T; [2]): -0.98
Growth Rate (HEK-293T; [3]): 0.71
Growth Rate (HEK-293T; [4]): 0.29
Growth Rate (HEK-293T; [10]): 0.68
Growth Rate (HEK-293T; [5]): 0.2
Growth Rate (HEK-293T; [9]): 0.49

CNc1nc(NCc2ncccn2)c2c(-c3ccc4ncccc4c3)c[nH]c2n1
Growth Rate (U2OS; [1]): 0.67
Growth Rate (U2OS; [8]): 0.95
Growth Rate (U2OS; [4]): 0.27
Growth Rate (U2OS; [10]): 0.56
Growth Rate (U2OS; [5]): 0.4
Growth Rate (U2OS; [9]): 0.42
Growth Rate (Fibroblast; [1]): 0.14
Growth Rate (Fibroblast; [2]): 0.3
Growth Rate (Fibroblast; [3]): 0.36
Growth Rate (Fibroblast; [4]): -0.14
Growth Rate (Fibroblast; [5]): 0.06
Growth Rate (HEK-293T; [1]): 0.21
Growth Rate (HEK-293T; [2]): 0.76
Growth Rate (HEK-293T; [6]): 0.37
Growth Rate (HEK-293T; [7]): 0.12
Growth Rate (HEK-293T; [3]): -0.16
Growth Rate (HEK-293T; [8]): -0.1
Growth Rate (HEK-293T; [4]): -0.23
Growth Rate (HEK-293T; [10]): -0.28
Growth Rate (HEK-293T; [5]): -0.25

Br.Oc1cc2c(cc1O)C(c1ccccc1)CNCC2 (configuration not stated)
Growth Rate (U2OS; [6]): 0.49
Growth Rate (U2OS; [7]): 1
Growth Rate (U2OS; [3]): 0.47
Growth Rate (U2OS; [4]): 0.55
Growth Rate (U2OS; [10]): 0.99
Growth Rate (U2OS; [5]): 0.98
Growth Rate (Fibroblast; [1]): 0.09
Growth Rate (Fibroblast; [2]): -0.21
Growth Rate (HEK-293T; [1]): 0.99
Growth Rate (HEK-293T; [2]): 0.61
Growth Rate (HEK-293T; [6]): 0.78
Growth Rate (HEK-293T; [7]): -0.1
Growth Rate (HEK-293T; [3]): 0.62
Growth Rate (HEK-293T; [8]): 0.43
Growth Rate (HEK-293T; [4]): 0.92
Growth Rate (HEK-293T; [10]): 0.37
Growth Rate (HEK-293T; [9]): 0.67

Cc1nc(C#Cc2cccnc2)cs1.Cl
Growth Rate (U2OS; [1]): 0
Growth Rate (U2OS; [2]): 0.3
Growth Rate (U2OS; [7]): 0.72
Growth Rate (U2OS; [8]): 0.84
Growth Rate (U2OS; [4]): 0.97
Growth Rate (Fibroblast; [2]): 0.91
Growth Rate (Fibroblast; [6]): 0.49
Growth Rate (Fibroblast; [7]): 0.58
Growth Rate (Fibroblast; [3]): 0.32
Growth Rate (Fibroblast; [4]): 0.37
Growth Rate (Fibroblast; [5]): 0.25
Growth Rate (HEK-293T; [1]): 0.27
Growth Rate (HEK-293T; [2]): 0.23
Growth Rate (HEK-293T; [6]): 0.68
Growth Rate (HEK-293T; [3]): 0.63
Growth Rate (HEK-293T; [8]): 0.87
Growth Rate (HEK-293T; [4]): 0.84
Growth Rate (HEK-293T; [10]): 0.94
Growth Rate (HEK-293T; [5]): 0.76
Growth Rate (HEK-293T; [9]): 0.73

O=C1NC(=Nc2c(Cl)cccc2Cl)S/C1=C\c1ccc2nccnc2c1
Growth Rate (U2OS; [2]): -0.91
Growth Rate (U2OS; [6]): 0
Growth Rate (U2OS; [7]): 0.81
Growth Rate (U2OS; [3]): 0.33
Growth Rate (U2OS; [8]): 0.54
Growth Rate (U2OS; [4]): 0.55
Growth Rate (U2OS; [10]): 0.57
Growth Rate (U2OS; [5]): 0.63
Growth Rate (U2OS; [9]): 0.59
Growth Rate (Fibroblast; [1]): 0.9
Growth Rate (Fibroblast; [2]): 0.72
Growth Rate (Fibroblast; [6]): 0.24
Growth Rate (Fibroblast; [7]): 0.79
Growth Rate (Fibroblast; [3]): 0.09
Growth Rate (Fibroblast; [8]): 0.32
Growth Rate (Fibroblast; [4]): 0.4
Growth Rate (Fibroblast; [10]): 0.61
Growth Rate (Fibroblast; [5]): 0.39
Growth Rate (Fibroblast; [9]): 0.48
Growth Rate (HEK-293T; [1]): 0.36
Growth Rate (HEK-293T; [2]): 0.37
Growth Rate (HEK-293T; [6]): 0.34
Growth Rate (HEK-293T; [7]): 0.18
Growth Rate (HEK-293T; [3]): 0.15
Growth Rate (HEK-293T; [8]): -0.06
Growth Rate (HEK-293T; [4]): 0.07
Growth Rate (HEK-293T; [10]): 0.05
Growth Rate (HEK-293T; [5]): 0.26
Growth Rate (HEK-293T; [9]): 0.15

O=C(O)c1cccc(/C=C2/C[C@@H]3[C@@H](/C=C/[C@H](O)C4CCCCC4)[C@H](O)C[C@@H]3O2)c1
Growth Rate (U2OS; [2]): 0.48
Growth Rate (U2OS; [6]): 0.65
Growth Rate (U2OS; [7]): 0.71
Growth Rate (U2OS; [3]): 0.59
Growth Rate (U2OS; [8]): 0.94
Growth Rate (U2OS; [4]): 0.9
Growth Rate (Fibroblast; [1]): -0.51
Growth Rate (Fibroblast; [2]): -0.06
Growth Rate (Fibroblast; [7]): 0.96
Growth Rate (Fibroblast; [8]): 0.77
Growth Rate (Fibroblast; [9]): 0.89
Growth Rate (HEK-293T; [1]): -0.12
Growth Rate (HEK-293T; [2]): -0.26
Growth Rate (HEK-293T; [4]): 0.98
Growth Rate (HEK-293T; [10]): 1
Growth Rate (HEK-293T; [5]): 0.9
Growth Rate (HEK-293T; [9]): 0.92

CCCN1CCO[C@H]2c3cc(O)ccc3OC[C@@H]21.Cl
Growth Rate (U2OS; [1]): 0.55
Growth Rate (U2OS; [6]): 0.6
Growth Rate (U2OS; [3]): 0.93
Growth Rate (U2OS; [4]): 0.92
Growth Rate (Fibroblast; [1]): 0.77
Growth Rate (Fibroblast; [2]): 0.29
Growth Rate (Fibroblast; [3]): 0.98
Growth Rate (Fibroblast; [4]): 0.72
Growth Rate (Fibroblast; [5]): 0.8
Growth Rate (HEK-293T; [1]): 0.72
Growth Rate (HEK-293T; [2]): -0.13
Growth Rate (HEK-293T; [9]): 0.96

COc1cc(Br)c(S(=O)(=O)Nc2ccc(C(F)(F)F)c(O[C@@H]3CCN(C)C3)c2)cc1OC
Growth Rate (U2OS; [2]): -1
Growth Rate (U2OS; [6]): 0.02
Growth Rate (U2OS; [4]): 0.61
Growth Rate (U2OS; [10]): 1
Growth Rate (U2OS; [5]): 0.77
Growth Rate (Fibroblast; [6]): -0.5
Growth Rate (Fibroblast; [7]): -0.63
Growth Rate (Fibroblast; [3]): -0.19
Growth Rate (Fibroblast; [8]): -0.22
Growth Rate (Fibroblast; [4]): -0.12
Growth Rate (Fibroblast; [10]): 0.19
Growth Rate (Fibroblast; [5]): -0.01
Growth Rate (Fibroblast; [9]): 0.1
Growth Rate (HEK-293T; [1]): 0.96
Growth Rate (HEK-293T; [7]): 0.09
Growth Rate (HEK-293T; [8]): 0.38
Growth Rate (HEK-293T; [10]): 0.94
